We go through four compounds from publication PMC8330727, “Triglyceride-mimetic prodrugs of scutellarin enhance oral bioavailability by promoting intestinal lymphatic transport and avoiding first-pass metabolism” (Drug Delivery, 2021).

A short description of series [1]: Oral bioavailability / pharmacokinetic study in conscious female S-D rats (plasma scutellarin by UHPLC-MS/MS). The settings on record: Sprague-Dawley (S-D), rat, in vivo. The procedure: Scutellarin exposure after oral administration of scutellarin and prodrugs was detected in conscious female S-D rats. The rats were fasted for 12 h before the experiment and divided into three groups (n = 5 each group) randomly: scutellarin solution (25 mg/kg), Scu-Me-C5-TG solution (62.5 mg/kg equivalent to Scu), Scu-Me-C5-βMe-TG solution (62.5 mg/kg equivalent to Scu). Blood samples (0.5 mL) were collected from 5 min before administration to up to 24 h post-dosing and centrifuged at 16,000 rpm for 15 min to separate plasma. 100 μL plasma was added into 900 μL methanol and vortexed for 5 min, then centrifuged at 16,000 rpm for 15 min. The supernatant was sampled and used for UHPLC-MS/MS detection. The pharmacokinetic parameters were calculated by DAS 2.0 software.

On the set-up of series [2]: method as in Huang et al., 2005. The settings on record: rats; ref Huang et al., 2005; cited from earlier work.
On the set-up of series [3]: method as in Lu et al., 2010. The settings on record: humans, 60 mg of scutellarin taken orally; ref Lu et al., 2010; cited from earlier work.
For series [4] the following is noted: cited from earlier work.
Details of series [5]: method as in Marina Shamis and Shabat, 2003; Ma et al., 2015. The settings on record: Figure 2; ref Marina Shamis and Shabat, 2003; Ma et al., 2015; cited from earlier work.
Series [6] can be described thus: In vivo lymphatic transport in anesthetized mesenteric lymph duct-cannulated rats. Also on record: species or system rat. The settings on record: scutellarin 25 mg/kg intragastric, anesthetized female rats.
For series [7] the following is noted: source not stated; cited from earlier work.

A word on the Log P: it is a log measure of how a compound divides between an organic and an aqueous phase.

Converted amounts (≈) assume the structure as drawn. Read-outs that look alike come from different tables or passages of the source.

In the case of `CCCCCCCCCCCCCCCC(=O)OCC(COC(=O)CCCCCCCCCCCCCCC)OC(=O)CCCC(=O)Oc1ccc(-c2cc(=O)c3c(O)c(O)c(O[C@@H]4O[C@H](C(=O)OC)[C@@H](O)[C@H](O)[C@H]4O)cc3o2)cc1` [Scu-Me-C5-TG, 1,3-bis(palmitoyloxy)propan-2-yl (4-(5,6-dihydroxy-4-oxo-7-(((2S,3R,4S,5S,6S)-3,4,5-trihydroxy-6-(methoxycarbonyl)tetrahydro-2H-pyran-2-yl)oxy)-4H-chromen-2-yl)phenyl) glutarate], in series [1], the F rel turned out to be 223.8%; the “maximum plasma concentration (Cmax), fold of the parent drug” value came to 1.72 fold; the “relative oral bioavailability (Frel), fold of scutellarin” value stood at 2.24 fold.
In the case of `O=C(O)[C@H]1O[C@@H](Oc2cc3oc(-c4ccc(O)cc4)cc(=O)c3c(O)c2O)[C@H](O)[C@@H](O)[C@@H]1O` [Scutellarin], the oral bioavailability in series [2] is on record as 10.6%. Moreover, the “Plasma Cmax” value in series [3] is under 5.0 ng/mL. For the same compound, in series [4] (source not stated), the “Log P” value was −2.56. Besides, the water solubility in series [5] was 20 µg/mL (≈ 43.3 µM). For the same compound, the “drug in collected mesenteric lymph (mass spectrometry)” value in series [6] is listed as “failed to reach the limit of quantification”. Further, in series [7], the pKa is recorded as 3-5.
Regarding `CCCCCCCCCCCCCCCC(=O)OCC(COC(=O)CCCCCCCCCCCCCCC)OC(=O)CC(C)CC(=O)Oc1ccc(-c2cc(=O)c3c(O)c(O)c(O[C@@H]4O[C@H](C(=O)OC)[C@@H](O)[C@H](O)[C@H]4O)cc3o2)cc1` (stereo partly shown) [Scu-Me-C5-βMe-TG], in series [1], the F rel came to 245.2%; the “maximum plasma concentration (Cmax), fold of the parent drug” value is given as 2.11 fold; the “relative oral bioavailability (Frel), fold of scutellarin” value was 2.45 fold.
On to `CC[C@@]1(O)C(=O)OCc2c1cc1n(c2=O)Cc2cc3c(CN(C)C)c(O)ccc3nc2-1` [Topotecan], for which, in series [4] (ref Wang et al., 2017), the “Log P” value was 0.8.
